According to US3935309A, “Synergistic combinations of phosphonomycin and bacteriostatic agents” (Merck & Co., Inc., priority 1974, dated 1976):
“And” between values parts separate entries of the source, which are not always exact repeats. Equal entries are not always repeated.

System: Staphylococcus aureus
Assay: criss-cross MIC method in nutrient broth (Example 2)
Type: cell-based
Conditions: 2nd substance chloramphenicol (CLM)
Experimental: This method involved the simultaneous determination of the MIC (minimum inhibitory concentration) of each member of a pair of antibiotics and of combinations of the two in nutrient broth (NB) containing 0.2% yeast extract (YE). Serial two-fold dilutions were made throughout the experiment, and the starting inoculum consisted of approximately 25,000 cells/ml. of Staphylococcus aureus. Incubation was at 37°C. for 24 hours. Identical experiments were performed on two different days.

Structure (SMILES): C[C@@H]1O[C@@H]1P(=O)(O)O [Phosphonomycin, (-) (cis-1,2-epoxypropyl)phosphonic acid]
- Phosphonomycin MIC in presence of MIC/4 of 2nd subst.: 15.6 µg/mL and 7.8 µg/mL
